Experiment [1] can be described thus: Cytotoxicity against human U87 cells. The conditions noted are these: U-87 MG. The format is functional, cell-based, U-87MG ATCC.
Experiment [2] concerns the target T1, Epidermal growth factor receptor (Homo sapiens, UniProt P00533). Kind of experiment: Inhibition of EGFR (unknown origin) phosphorylation by ELISA. On the technique in general: ELISA stands for enzyme-linked immunosorbent assay.
The next experiment addresses Tubulin beta. Kind of experiment: Inhibition of beta-tubulin polymerization (unknown origin) measured every 3 secs for 1 hr by spectrofluorometer. The format is protein assay, Homo sapiens.
Experiment [3] has as its target [Pyruvate dehydrogenase (acetyl-transferring)] kinase isozyme 1, mitochondrial (Homo sapiens, UniProt Q15118). The experiment can be described thus: Inhibition of human recombinant PDHK1 using KKKYHGHSMSDPGVSYRT as substrate incubated for 40 mins in presence of Mg/ATP mix by [gamma-32P]-ATP based scintillation counting analysis.
The nature of experiment [4]: Inhibition of sheep brain tubulin polymerization by DAPI staining based fluorescence analysis. The format is tissue-based, Ovis aries.
Experiment [5] deals with T2, Histone deacetylase 1 (Homo sapiens, UniProt Q13547). Kind of experiment: Inhibition of recombinant HDAC1 (unknown origin) using Fluor-de-Lys as substrate incubated for 10 mins by fluorescence based analysis.
In experiment [6] the target is Serine/threonine-protein kinase B-raf (Homo sapiens, UniProt P15056, V600E). The experiment can be described thus: Inhibition of full length human BRAF V600E mutant using His-tagged full length human MEK1 (K97R) as substrate incubated for 20 mins by [gamma-33P]ATP based filter-binding method.
The target of experiment [7] is T1, Epidermal growth factor receptor. Kind of experiment: Inhibition of EGFR (unknown origin) phosphorylation using kit-tyr4 peptide as substrate incubated for 1 hr in presence of ATP by UV-Vis spectrophotometer.
The test system of a further experiment is A549. The experiment can be described thus: Antiproliferative activity against human A549 cells assessed as inhibition of cell growth incubated for 48 hrs by MTT assay. The format is functional, cell-based. The conditions noted are these: A549, 48 h. (In general: Tetrazolium dyes change colour on reduction, which living cells bring about.)
For another experiment, the target named is DNA topoisomerase 2-beta (Homo sapiens, UniProt Q02880). The experiment can be described thus: Inhibition of human DNA topoisomerase 2-beta.
Experiment [8] deals with T1, Epidermal growth factor receptor. The experiment can be described thus: Inhibition of EGFR (unknown origin) by ELISA.
Experiment [9] deals with Vascular endothelial growth factor receptor 2 (Homo sapiens, UniProt P35968). The experiment can be described thus: Inhibition of VEGFR2 (unknown origin) by ELISA.
Experiment [10] deals with Tyrosine-protein kinase JAK2 (Homo sapiens, UniProt O60674). The experiment can be described thus: Inhibition of JAK2 (unknown origin).
Experiment [11] concerns the target T3, Protein deacetylase HDAC6 (Homo sapiens, UniProt Q9UBN7).
T3 sequence (Q9UBN7 whole entry): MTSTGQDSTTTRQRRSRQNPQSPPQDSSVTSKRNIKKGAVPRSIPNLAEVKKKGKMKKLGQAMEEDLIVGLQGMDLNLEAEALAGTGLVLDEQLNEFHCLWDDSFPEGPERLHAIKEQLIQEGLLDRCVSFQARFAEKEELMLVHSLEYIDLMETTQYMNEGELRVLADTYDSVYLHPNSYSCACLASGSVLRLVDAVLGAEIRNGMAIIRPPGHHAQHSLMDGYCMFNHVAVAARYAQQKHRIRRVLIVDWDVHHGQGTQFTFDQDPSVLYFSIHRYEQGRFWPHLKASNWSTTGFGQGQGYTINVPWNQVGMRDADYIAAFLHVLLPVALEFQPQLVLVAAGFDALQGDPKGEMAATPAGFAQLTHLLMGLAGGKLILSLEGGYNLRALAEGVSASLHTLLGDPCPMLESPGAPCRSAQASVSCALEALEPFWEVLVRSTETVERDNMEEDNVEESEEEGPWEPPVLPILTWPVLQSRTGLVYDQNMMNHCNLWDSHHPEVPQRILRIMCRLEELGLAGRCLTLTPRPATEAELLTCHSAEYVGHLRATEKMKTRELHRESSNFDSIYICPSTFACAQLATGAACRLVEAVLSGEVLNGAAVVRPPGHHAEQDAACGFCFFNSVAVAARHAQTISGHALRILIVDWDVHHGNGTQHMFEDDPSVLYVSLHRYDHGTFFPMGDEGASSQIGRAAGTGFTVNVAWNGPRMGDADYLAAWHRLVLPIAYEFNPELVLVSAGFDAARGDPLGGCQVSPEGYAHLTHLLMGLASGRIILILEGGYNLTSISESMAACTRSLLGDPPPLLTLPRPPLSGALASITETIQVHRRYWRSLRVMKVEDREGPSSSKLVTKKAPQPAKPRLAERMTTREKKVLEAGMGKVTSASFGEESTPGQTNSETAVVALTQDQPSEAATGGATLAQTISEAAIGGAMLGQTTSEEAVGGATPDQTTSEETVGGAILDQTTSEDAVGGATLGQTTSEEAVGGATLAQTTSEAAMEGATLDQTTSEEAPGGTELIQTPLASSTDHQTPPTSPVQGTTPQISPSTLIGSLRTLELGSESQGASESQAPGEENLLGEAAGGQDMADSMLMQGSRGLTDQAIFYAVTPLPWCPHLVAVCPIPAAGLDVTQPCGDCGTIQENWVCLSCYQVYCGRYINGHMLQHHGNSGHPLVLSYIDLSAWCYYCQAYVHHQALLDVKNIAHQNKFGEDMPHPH
The experiment can be described thus: Inhibition of HDAC6 (unknown origin).

Experiment [12] concerns the target T1, Epidermal growth factor receptor. Kind of experiment: Inhibition of EGFR (unknown origin).
Another experiment concerns NCI-H1975. Kind of experiment: Cytotoxicity against human NCI-H1975 cells. The format is functional, cell-based.
Another experiment relates to A-431. The experiment can be described thus: Cytotoxicity against human A-431 cells. The format is functional, cell-based.
In experiment [13] the target is T2, Histone deacetylase 1. The experiment can be described thus: Inhibition of HDAC1 (unknown origin).
In another experiment the test system is MCF7. The experiment can be described thus: Cytotoxicity against human MCF7 cells assessed as inhibition of cell growth incubated for 24 hrs by MTT assay. The format is functional, cell-based. As to conditions: MCF7, 24 h.
Another experiment has as its target Tubulin. Kind of experiment: Inhibition of MAP-rich tubulin (unknown origin) polymerization. The format is protein-complex assay, Homo sapiens.
In experiment [14] the target is T1, Epidermal growth factor receptor. Kind of experiment: Inhibition of GST-fused EGFR (unknown origin) in presence of ATP by microplate reader analysis.
Another experiment deals with MDA-MB-231. Kind of experiment: Cytotoxicity against human MDA-MB-231 cells assessed as inhibition of cell growth incubated for 24 hrs by MTT assay. The format is functional, cell-based. As to conditions: MDA-MB-231, 24 h.
For experiment [15], the system named is K562. The experiment can be described thus: Cytotoxicity against human K562 cells assessed as inhibition of cell growth. The format is functional, cell-based.
Experiment [16] deals with K562. The experiment can be described thus: Cytotoxicity against imatinib-resistant human K562 cells assessed as inhibition of cell growth. The format is functional, cell-based.

pIC50: −log10 of the molar value.

T1 sequence (P00533 whole entry): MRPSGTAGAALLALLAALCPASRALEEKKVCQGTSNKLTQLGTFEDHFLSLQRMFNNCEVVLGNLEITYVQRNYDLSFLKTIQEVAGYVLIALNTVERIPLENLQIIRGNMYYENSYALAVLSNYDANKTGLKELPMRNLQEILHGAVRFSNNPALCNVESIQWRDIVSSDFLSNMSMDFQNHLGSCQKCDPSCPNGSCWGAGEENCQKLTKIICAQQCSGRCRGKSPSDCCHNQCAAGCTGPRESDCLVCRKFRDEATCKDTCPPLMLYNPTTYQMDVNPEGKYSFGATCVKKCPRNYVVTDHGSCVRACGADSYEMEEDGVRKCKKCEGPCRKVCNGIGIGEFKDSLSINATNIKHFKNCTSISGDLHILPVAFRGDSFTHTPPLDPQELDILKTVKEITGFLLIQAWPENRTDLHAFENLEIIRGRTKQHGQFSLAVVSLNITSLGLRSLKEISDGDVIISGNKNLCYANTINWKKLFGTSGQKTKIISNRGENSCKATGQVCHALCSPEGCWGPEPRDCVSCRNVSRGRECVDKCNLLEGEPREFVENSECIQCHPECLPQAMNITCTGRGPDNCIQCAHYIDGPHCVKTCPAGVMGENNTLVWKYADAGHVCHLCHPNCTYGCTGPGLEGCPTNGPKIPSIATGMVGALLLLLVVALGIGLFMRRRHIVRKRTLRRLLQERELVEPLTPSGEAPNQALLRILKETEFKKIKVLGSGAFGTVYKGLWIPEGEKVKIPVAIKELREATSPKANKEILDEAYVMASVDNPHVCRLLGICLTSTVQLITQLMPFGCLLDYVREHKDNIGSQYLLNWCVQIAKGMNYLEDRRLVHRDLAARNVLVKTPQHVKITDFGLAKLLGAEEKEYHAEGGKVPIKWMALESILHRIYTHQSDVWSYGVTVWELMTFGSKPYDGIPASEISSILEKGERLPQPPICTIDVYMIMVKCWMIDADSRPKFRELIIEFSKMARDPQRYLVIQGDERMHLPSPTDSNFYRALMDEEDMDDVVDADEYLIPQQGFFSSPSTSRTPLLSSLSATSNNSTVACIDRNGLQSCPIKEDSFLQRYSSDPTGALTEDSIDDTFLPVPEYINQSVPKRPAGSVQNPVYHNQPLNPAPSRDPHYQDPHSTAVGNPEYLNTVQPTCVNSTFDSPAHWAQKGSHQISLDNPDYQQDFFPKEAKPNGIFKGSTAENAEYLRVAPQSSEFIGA
T2 sequence (Q13547 whole entry): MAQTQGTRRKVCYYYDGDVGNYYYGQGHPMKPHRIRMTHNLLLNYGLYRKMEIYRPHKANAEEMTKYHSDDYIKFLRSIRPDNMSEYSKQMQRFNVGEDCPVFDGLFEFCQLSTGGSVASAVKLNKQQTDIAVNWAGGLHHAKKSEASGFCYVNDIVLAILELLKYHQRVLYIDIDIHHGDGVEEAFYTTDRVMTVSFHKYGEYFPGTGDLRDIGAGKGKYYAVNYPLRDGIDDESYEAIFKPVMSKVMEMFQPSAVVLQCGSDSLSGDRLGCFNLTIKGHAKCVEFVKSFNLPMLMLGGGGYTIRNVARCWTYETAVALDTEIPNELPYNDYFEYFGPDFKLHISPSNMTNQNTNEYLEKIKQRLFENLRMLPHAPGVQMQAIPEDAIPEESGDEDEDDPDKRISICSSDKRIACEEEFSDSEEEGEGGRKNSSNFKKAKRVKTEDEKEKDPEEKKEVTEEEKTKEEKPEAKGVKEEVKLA
Chain of Tyrosine-protein kinase JAK2 (O60674 whole entry): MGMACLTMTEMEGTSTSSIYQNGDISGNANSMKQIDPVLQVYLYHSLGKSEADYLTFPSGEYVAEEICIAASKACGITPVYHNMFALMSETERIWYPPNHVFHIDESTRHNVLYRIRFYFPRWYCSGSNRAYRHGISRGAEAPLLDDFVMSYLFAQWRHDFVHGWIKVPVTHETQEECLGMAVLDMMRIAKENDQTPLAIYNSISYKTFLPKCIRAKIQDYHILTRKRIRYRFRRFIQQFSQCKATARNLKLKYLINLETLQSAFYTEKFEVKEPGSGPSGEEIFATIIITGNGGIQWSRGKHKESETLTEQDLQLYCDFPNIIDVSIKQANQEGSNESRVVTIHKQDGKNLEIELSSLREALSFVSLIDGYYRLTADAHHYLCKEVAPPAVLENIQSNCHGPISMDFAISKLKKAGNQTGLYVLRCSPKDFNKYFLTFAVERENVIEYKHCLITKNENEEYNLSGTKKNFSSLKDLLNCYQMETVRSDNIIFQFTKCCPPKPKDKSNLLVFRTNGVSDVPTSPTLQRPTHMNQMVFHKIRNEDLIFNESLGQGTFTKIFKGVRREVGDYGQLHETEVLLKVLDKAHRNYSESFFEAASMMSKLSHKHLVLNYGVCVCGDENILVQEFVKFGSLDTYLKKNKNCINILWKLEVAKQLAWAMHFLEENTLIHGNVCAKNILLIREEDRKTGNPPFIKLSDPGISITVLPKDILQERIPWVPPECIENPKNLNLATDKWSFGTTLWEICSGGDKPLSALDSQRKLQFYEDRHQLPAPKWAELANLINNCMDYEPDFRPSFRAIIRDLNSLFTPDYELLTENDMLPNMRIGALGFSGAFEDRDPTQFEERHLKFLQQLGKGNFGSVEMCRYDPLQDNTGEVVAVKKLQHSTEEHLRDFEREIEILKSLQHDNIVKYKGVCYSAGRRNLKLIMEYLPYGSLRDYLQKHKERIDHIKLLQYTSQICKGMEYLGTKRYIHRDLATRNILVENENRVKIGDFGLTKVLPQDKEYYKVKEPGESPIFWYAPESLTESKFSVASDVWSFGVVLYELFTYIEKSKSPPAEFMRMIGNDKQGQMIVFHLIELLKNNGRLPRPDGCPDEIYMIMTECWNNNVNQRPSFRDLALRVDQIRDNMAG
Chain of DNA topoisomerase 2-beta (Q02880 whole entry): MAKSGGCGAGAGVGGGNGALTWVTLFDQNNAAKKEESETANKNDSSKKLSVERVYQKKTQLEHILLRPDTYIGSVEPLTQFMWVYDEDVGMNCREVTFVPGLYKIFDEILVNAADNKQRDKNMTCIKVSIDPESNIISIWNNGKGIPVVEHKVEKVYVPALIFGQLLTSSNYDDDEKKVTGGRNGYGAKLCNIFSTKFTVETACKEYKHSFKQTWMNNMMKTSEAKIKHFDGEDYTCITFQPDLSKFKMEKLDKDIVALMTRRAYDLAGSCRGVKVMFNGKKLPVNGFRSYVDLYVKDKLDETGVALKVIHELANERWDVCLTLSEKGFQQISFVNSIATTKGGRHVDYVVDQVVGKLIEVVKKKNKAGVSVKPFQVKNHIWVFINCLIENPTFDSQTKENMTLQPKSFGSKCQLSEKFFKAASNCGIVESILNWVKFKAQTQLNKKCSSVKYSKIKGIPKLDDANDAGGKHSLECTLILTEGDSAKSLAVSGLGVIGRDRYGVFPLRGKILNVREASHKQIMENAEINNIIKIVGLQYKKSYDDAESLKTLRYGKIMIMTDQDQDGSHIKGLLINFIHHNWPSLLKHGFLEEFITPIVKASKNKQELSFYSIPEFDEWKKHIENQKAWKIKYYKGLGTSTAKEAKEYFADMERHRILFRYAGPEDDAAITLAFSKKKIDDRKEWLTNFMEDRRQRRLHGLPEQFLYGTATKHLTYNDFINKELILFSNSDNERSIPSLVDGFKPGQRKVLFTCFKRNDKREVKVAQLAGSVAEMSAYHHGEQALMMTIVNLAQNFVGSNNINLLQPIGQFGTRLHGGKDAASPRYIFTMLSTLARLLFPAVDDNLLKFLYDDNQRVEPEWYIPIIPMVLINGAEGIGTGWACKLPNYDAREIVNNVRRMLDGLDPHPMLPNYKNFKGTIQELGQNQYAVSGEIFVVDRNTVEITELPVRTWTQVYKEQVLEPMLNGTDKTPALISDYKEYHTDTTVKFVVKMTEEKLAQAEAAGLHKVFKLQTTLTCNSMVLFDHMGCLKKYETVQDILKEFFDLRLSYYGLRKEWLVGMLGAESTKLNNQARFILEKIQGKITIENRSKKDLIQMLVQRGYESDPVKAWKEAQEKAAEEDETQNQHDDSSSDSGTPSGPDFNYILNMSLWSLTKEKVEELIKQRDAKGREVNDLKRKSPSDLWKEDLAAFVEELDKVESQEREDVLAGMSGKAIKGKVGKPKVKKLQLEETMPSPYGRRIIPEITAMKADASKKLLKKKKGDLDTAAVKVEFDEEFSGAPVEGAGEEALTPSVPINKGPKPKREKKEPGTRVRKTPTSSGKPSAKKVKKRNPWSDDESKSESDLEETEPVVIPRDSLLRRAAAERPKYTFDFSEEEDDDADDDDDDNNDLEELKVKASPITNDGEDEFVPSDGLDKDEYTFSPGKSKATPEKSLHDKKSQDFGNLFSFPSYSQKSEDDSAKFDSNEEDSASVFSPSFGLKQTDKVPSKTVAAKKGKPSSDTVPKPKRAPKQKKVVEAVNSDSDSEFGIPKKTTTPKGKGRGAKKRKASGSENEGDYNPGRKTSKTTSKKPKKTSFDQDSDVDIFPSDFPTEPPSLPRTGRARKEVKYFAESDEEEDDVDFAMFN
Chain of [Pyruvate dehydrogenase (acetyl-transferring)] kinase isozyme 1, mitochondrial (Q15118 whole entry): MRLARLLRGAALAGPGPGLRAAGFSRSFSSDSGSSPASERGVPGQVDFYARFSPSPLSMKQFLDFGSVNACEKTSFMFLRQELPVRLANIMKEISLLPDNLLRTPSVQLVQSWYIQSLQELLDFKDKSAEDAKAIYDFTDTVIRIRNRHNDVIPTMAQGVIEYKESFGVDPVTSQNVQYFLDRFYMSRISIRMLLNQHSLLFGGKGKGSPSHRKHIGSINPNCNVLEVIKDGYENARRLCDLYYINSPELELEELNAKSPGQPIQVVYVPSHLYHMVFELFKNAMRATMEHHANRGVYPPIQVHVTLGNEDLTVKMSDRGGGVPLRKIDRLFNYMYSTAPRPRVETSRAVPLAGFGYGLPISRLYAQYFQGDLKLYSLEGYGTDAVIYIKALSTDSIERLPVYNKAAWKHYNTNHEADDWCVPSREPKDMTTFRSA

On to `C=C[C@]1(C)CC[C@@H](C(=C)COC(=O)CNC(=O)CCC(=O)OCCCCOc2no[n+]([O-])c2S(=O)(=O)c2ccccc2)C[C@H]1C(=C)C`, for which the pIC50 in experiment [1] was 8.70.

In [2], `O=C(/C=C/c1ccc(F)cc1)c1cc(Br)cc2cc(-c3ccccc3)oc12` showed a pIC50 of 7.05. At Tubulin beta, this compound returned an IC50 of 5510 nM.

`COc1ccc(C(=O)c2cc(OC)c(OC)c(OC)c2)cc1OC(=O)C(Cl)Cl`: the values for the pIC50 in [3] and in experiment [4] were 4.92 and 6.59, respectively.

`COc1ccc(NC(=O)Nc2ccc(Oc3ccc(C(=O)c4ncc[nH]4)cc3)cc2)cc1`: the results for the pIC50 (at Histone deacetylase 1 [5]; in experiment [6]) were 6.20 and 5.77, respectively.

Regarding `COc1ccc(CNc2nc3ccccc3c(NCc3ccc(OC)cc3)c2[N+](=O)[O-])cc1`, the results for the pIC50 (in experiment [7]; in the experiment with A549) were 6.66 and 5.19, respectively.

With `Cc1ccc2c(=O)n(Cc3ccccc3)c(SCc3cn(-c4ccc(C(=O)O)cc4)nn3)nc2c1`, the values for the pIC50 (against DNA topoisomerase 2-beta; in [8]; in experiment [9]) were 7.59, 7.41 and 6.90, respectively.

In the case of `CS(=O)(=O)Nc1ccc(-c2ccnc(Nc3ccc(N4CCC(CCc5ccc(/C=C/CC(=O)NO)cc5)CC4)cc3)n2)cc1`, the pIC50 in experiment [10] is 8.10; in experiment [11], 7.34.

As for `O=C(CCCCCn1cc(-c2ccc3ncnc(Nc4ccc(Br)cc4F)c3c2)nn1)NO`, the pIC50 is 7.99 in experiment [12]; 6.04 with NCI-H1975; 6.59 with A-431; 8.96 against Histone deacetylase 1 [13]; 8.37 in experiment [11].

Consider `Fc1ccc(C2=Nc3ccc(F)cc3CN2/N=C\c2ccccc2)cc1`, for which the pIC50 was 6.46 with MCF7, 5.03 against Tubulin, 7.12 in [14] and 6.55 in the experiment on MDA-MB-231.

In experiment [12], `Cc1cc(NC2=NC(=O)/C(=C/c3c4ccccc4cc4ccccc34)S2)no1` showed a pIC50 of 7.35.

`C=C[C@]1(C)CC[C@@H](C(=C)COC(=O)CCC(=O)CCCOc2no[n+]([O-])c2S(=O)(=O)c2ccccc2)C[C@H]1C(=C)C` gave a pIC50 in [1] of 8.70.

On to `COc1ccc(S(=O)(=O)N2CCc3cccc(NC=O)c32)cc1`, for which the pIC50 was 6.41 with K562 [15] and 6.39 in the experiment on K562 [16].

For orientation: pIC50 means −log10 of the IC50, conventionally taken in molar units. Broadly, the IC50 is the concentration that gives 50% inhibition.
